Measurements published in US5912183A, “Peptide inhibitors of mitogenesis and motogenesis” (Pharmacia & Upjohn S.p.A., priority 1993, dated 1999).
Residues, ends and D or L forms follow the SMILES beside them.

System: N- and C-SH2 domains of p85
Assay: BIAcore inhibition of binding of GST-SH2 domains to immobilized PDGF receptor phosphopeptide Y751
Set-up: species or system bovine
Conditions: range of phosphopeptide concentrations; 25° C.; FIG. 7
Experimental: FIG. 7. Evaluation of the relative affinities of phosphotyrosine 1313, 1349 and 1356 for the N- and C- SH2 domains of p85. Affinities were determined by biospecific interaction analysis with the BIAcore instrument (Jonsson, U., Fagerstam, L., Roos, H., Ronnberg, J., Sjolander, Stenber, E., Stahlberg, R. Urbaniczky, C., Ostlin, H., and Malmquist. 1991. Surface plasmon reasonance and microfluidics for real time biospecific interaction analysis. Biotechniques 11: 520-527; Jonsson, U. and M. Malmquist. 1992. Real time biospecific analysis. The integration of surface plasmon reasonance detection, general biospecific interface chemistry and microfluidics into one analytical system p. 291-336. In F. Turner (ed), Advances in Biosensors, vol. 2 JAI Press, London; Karlsson, R., Michaelsson, A., and L. Mattsson. 1991. Kinetic analysis of monoclonal antibody-antigen interactions with a new biosensor based analytical system. J. Immunol. Meth. 145: 229-246).
Relative affinities were determined by measuring the ability of the phosphopeptides to inhibit the interaction of the SH2 domains with an immobilized phosphopeptide (DMSKDESVDY*VPMLDMK) (SEQ. ID NO: 26) which includes Y751 in the human PDGF receptor. Panel A and B show the results of these measurements, expressed as % inhibition of binding to phosphopeptide Y751.
GST-SH2 domain fusion proteins. The N- and C-SH2 domains of the bovine PI 3-kinase p85 subunit (amino acids 314-431 and 612-722) were obtained by polymerase chain reaction and cloned into the pGEX-2 bacterial expression vector (Smith, D. B., and Johnson K. S., Gene 67: 31-40 (1988).
Glutathione-S-transferase (GST)-SH2 fusion proteins were purified from bacterial lysates by glutathione affinity chromatography (Panayotou, G., et al. EMBO J., 11: 4261-4272 (1992)). Amino acid analysis on an Applied Biosystems 420A analyzer was used to determine the concentration of the recombinant proteins.
Analysis of the interaction of Y1349 and Y1356 with the p85 N- and C- SH2 domains using the BIAcore. […]

Structure (SMILES): CSCC[C@H](NC(=O)[C@@H](NC(=O)[C@H](CCC(=O)O)NC(=O)[C@@H](N)Cc1ccc(OP(=O)(O)O)cc1)C(C)C)C(=O)N[C@@H](CC(C)C)C(=O)N[C@@H](CCCCN)C(=O)N[C@@H](CS)C(=O)N[C@@H](Cc1c[nH]c2ccccc12)C(=O)O [H-Tyr*-Glu-Val-Met-Leu-Lys-Cys-Trp-OH] (HELM PEPTIDE1{[N[C@@H](Cc1ccc(OP(=O)(O)O)cc1)C(=O)[*:2]].E.V.M.L.K.C.W}$$$$V2.0)
- Apparent relative affinity: inhibition of binding of p85 N- and C-SH2 domains to phosphopeptide Y751: highest apparent affinity
